Source: US20250375417A1, “OREXIN RECEPTOR 2 (OX2R) AGONIST FOR USE IN NARCOLEPSY TYPE 1 (NT1)” (TAKEDA PHARMACEUTICAL COMPANY LIMITED, priority 2024, published 2025)
Values joined by “and” are separate entries in the source; they are usually repeats but may differ in a detail not shown here. Equal values may be shown once.

Tests used:
[1] = tested on: participants with NT2; experiment: MWT sleep onset latency, Phase 2 NT2 trial (Example 2); format: in vivo, human; details: not statistically significant (p>0.4)
Description: In some aspects of the methods described herein, the subject experiences a higher mean sleep latency (also referred to as sleep onset latency or SOL) from the Maintenance of Wakefulness Test (MWT) after a treatment period compared to an untreated subject. The MWT is a validated, objective measure that evaluates a person's ability to remain awake under soporific conditions for a defined period of time. Because there is no biological measure of wakefulness, wakefulness is measured indirectly by the inability or delayed tendency to fall asleep. This tendency to fall asleep is measured via electroencephalography-derived sleep latency in the MWT. One MWT, that includes four 40-minute wake trials, is done on each day specified in the Schedule of Activities of the trial. Sleep latency in each wake trial is recorded. Participants are required to stay awake in between the 4 MWT wake trials.
During each MWT wake trial, participants are instructed to sit in a bed or reclining chair and remain awake for as long as possible in a dimly lit room. Wake trials are ended after 40 minutes if no sleep occurs. If no sleep has been observed according to these rules, then the latency is defined as 40 minutes.
Randomization was stratified by region. Starting on the morning of Day 1, the study drug was administered at approximately the same time each day for 8 weeks. […]

[2] = tested on: patients with NT1; experiment: Ambulatory blood pressure monitoring (ABPM), nocturnal BP dip, Phase 2 NT1 trial; format: in vivo, human; details: for DBP 24-h average, LS mean change at Week 6 from baseline / DBP 24-h pattern dip, LS mean change at Week 6 from baseline / DBP 24-h pattern highest, LS mean change at Week 6 from baseline / DBP 24-h pattern lowest, LS mean change at Week 6 from baseline / SBP 24-h average, LS mean change at Week 6 from baseline / SBP 24-h pattern dip, LS mean change at Week 6 from baseline / SBP 24-h pattern highest, LS mean change at Week 6 from baseline / SBP 24-h pattern lowest, LS mean change at Week 6 from baseline: baseline DBP non-dippers
Source text: Blunted nocturnal blood pressure (BP) dip, a potential risk factor for cardiovascular disease, may affect approximately ⅓ of patients with NT1. In the studies described herein, ambulatory blood pressure monitoring (ABPM) recordings can be obtained over an approximately 24.5-hour period and participants should not be confined to the clinical site during most of the 24.5-hour recording period. The ABPM device should be applied on-site. Because it is a requirement that the ABPM devices begin recording in the morning before the first morning dose (or similar time if performed during screening period), site staff may opt to confine participants in the evening before fitting participants with the ABPM monitoring device. If the participant is travelling to the site for the ABPM fitting, they may delay their first morning dose of study medication (to be taken no later than 10 AM) if needed. Participants who are confined the evening prior should also take their study drug right after the ABPM recording starts. For the ABPM during the screening period, the recording should begin between 8:00 AM±2 hours. Sites should ensure that all recordings meet the minimum threshold of acceptability. […] Participants will be trained on the use of the device with NT1.
Using functional data analysis, systolic BP (SBP) and diastolic BP (DBP) can be estimated in 24-hour patterns and key parameters, such as average, waveform amplitude, lowest and highest points, and dip amplitude (defined as [average−lowest]/average) can be extracted for each subject-visit. Non-dippers are defined as DBP 24-hour dip<13.44, as projected from a DBP fixed-window daytime to nighttime dip of <10%.
Blunted nocturnal blood pressure (BP) dip, a potential risk factor for cardiovascular disease, may affect approximately ⅓ of patients with narcolepsy type 1 (NT1). Ambulatory BP monitor (ABPM) data from 112 study patients with NT1 was measured. Using functional data analysis, systolic BP (SBP) and diastolic BP (DBP) were estimated in 24-hour patterns and key parameters were extracted, such as average, waveform amplitude, lowest and highest values, and dip amplitude (defined as [average-lowest]/average) at baseline and Week 6. […] Non-dippers were defined as having DBP 24-hour dip below a threshold corresponding to DBP daytime (6 am-10 pm) to nighttime ([…]) drop of <10%. Longitudinal changes in BP parameters were quantified across five randomized treatment arms (placebo, Compound A 0.5 mg twice 3 hours apart, 2 mg twice 3 hours apart, 2 mg then 5 mg 3 hours later, and 7 mg once-daily) at Week 6 post-baseline. Associations between BP and sleep parameters were assessed longitudinally by matching ABPM data from baseline and Week 6 with nocturnal polysomnography data from baseline and Week 8, respectively.

[3] = tested on: patients with NT1; set-up: species or system human; details: in vivo

## CCS(=O)(=O)N[C@@H]1[C@H](Cc2cccc(-c3cc(F)cc(F)c3)c2F)N(C(=O)C(C)(C)O)CC1(F)F [Compound A, N-{(2S,3R)-4,4-difluoro-1-(2-hydroxy-2-methylpropanoyl)-2-[(2,3′,5′-trifluoro[1,1′-biphenyl]-3-yl)methyl]pyrrolidin-3-yl}ethanesulfonamide]
[1]; 2 mg/2 mg
  Estimated mean change from baseline to Week 8 in SOL-MWT versus placebo: -0.24 min
[1]; 2 mg/5 mg
  Estimated mean change from baseline to Week 8 in SOL-MWT versus placebo: 2.4 min
[2]; baseline DBP dippers (n=73), either treatment arm
  SBP or DBP dip, change from baseline at Week 6: no significant changes
[2]; 0.5 mg/0.5 mg
  DBP 24-h average, LS mean change at Week 6 from baseline: 0.17
  DBP 24-h pattern dip, LS mean change at Week 6 from baseline: 2.7% and 2.67%
  DBP 24-h pattern highest, LS mean change at Week 6 from baseline: 0.75
  DBP 24-h pattern lowest, LS mean change at Week 6 from baseline: −1.73
  SBP 24-h average, LS mean change at Week 6 from baseline: −1.42
  SBP 24-h pattern dip, LS mean change at Week 6 from baseline: 1.20%
  SBP 24-h pattern highest, LS mean change at Week 6 from baseline: −0.87
  SBP 24-h pattern lowest, LS mean change at Week 6 from baseline: −2.48
[2]; 2 mg/2 mg
  DBP 24-h average, LS mean change at Week 6 from baseline: −0.08
  DBP 24-h pattern dip, LS mean change at Week 6 from baseline: 7.9% and 7.91%
  DBP 24-h pattern highest, LS mean change at Week 6 from baseline: 1.62
  DBP 24-h pattern lowest, LS mean change at Week 6 from baseline: −5.93
  SBP 24-h average, LS mean change at Week 6 from baseline: 0.05
  SBP 24-h pattern dip, LS mean change at Week 6 from baseline: 5.36%
  SBP 24-h pattern highest, LS mean change at Week 6 from baseline: 1.45
  SBP 24-h pattern lowest, LS mean change at Week 6 from baseline: −6.55
[2]; 2 mg/5 mg
  DBP 24-h average, LS mean change at Week 6 from baseline: −3.40
  DBP 24-h pattern dip, LS mean change at Week 6 from baseline: 8.1% and 8.11%
  DBP 24-h pattern highest, LS mean change at Week 6 from baseline: −1.18
  DBP 24-h pattern lowest, LS mean change at Week 6 from baseline: −8.71
  SBP 24-h average, LS mean change at Week 6 from baseline: −4.13
  SBP 24-h pattern dip, LS mean change at Week 6 from baseline: 4.11%
  SBP 24-h pattern highest, LS mean change at Week 6 from baseline: −1.86
  SBP 24-h pattern lowest, LS mean change at Week 6 from baseline: −8.80
[2]; 7 mg QD
  DBP 24-h average, LS mean change at Week 6 from baseline: −0.75
  DBP 24-h pattern dip, LS mean change at Week 6 from baseline: 6.6% and 6.61%
  DBP 24-h pattern highest, LS mean change at Week 6 from baseline: 1.26
  DBP 24-h pattern lowest, LS mean change at Week 6 from baseline: −5.13
  SBP 24-h average, LS mean change at Week 6 from baseline: 1.32
  SBP 24-h pattern dip, LS mean change at Week 6 from baseline: 3.28%
  SBP 24-h pattern highest, LS mean change at Week 6 from baseline: 3.31
  SBP 24-h pattern lowest, LS mean change at Week 6 from baseline: −2.44
[2]; whole population (n=111), any Compound A dose
  DBP 24-hour pattern dip, change from baseline at Week 6: no significant changes
[3]
  Improvement on CPAL total errors: statistically significant across all doses
  Improvement on ONB reaction time: statistically significant across all doses
  Improvement on iDSST-s number correct: statistically significant across all doses
